Measured values reported in ChEMBL document CHEMBL1201862, “PubChem BioAssay data set” (2004).
Calls of active or inactive are those of the source.

Experiments:
[1] = molecular target: T1, Tyrosine-protein phosphatase non-receptor type 7 (Homo sapiens, UniProt P35236); assay: inhibition of hematopoietic tyrosine phosphatase HePTP – biochemical, set 2, SAR follow-up (AID 449736); type: functional
T1 sequence (P35236 whole entry): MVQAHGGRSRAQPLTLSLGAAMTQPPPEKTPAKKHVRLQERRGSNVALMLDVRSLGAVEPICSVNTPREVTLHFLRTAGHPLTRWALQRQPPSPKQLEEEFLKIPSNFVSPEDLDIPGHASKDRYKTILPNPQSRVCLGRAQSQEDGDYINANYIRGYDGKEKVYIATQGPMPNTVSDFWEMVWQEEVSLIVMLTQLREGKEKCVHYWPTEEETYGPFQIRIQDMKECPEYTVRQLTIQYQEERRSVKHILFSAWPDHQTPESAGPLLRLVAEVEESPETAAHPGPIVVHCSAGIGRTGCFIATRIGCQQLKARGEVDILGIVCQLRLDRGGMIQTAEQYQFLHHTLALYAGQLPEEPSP

[2] = molecular target: T1, Tyrosine-protein phosphatase non-receptor type 7; assay: redox-active compounds inhibiting HePTP phosphatase – biochemical, fluorescence, mechanism study (AID 2068); type: functional
[3] = molecular target: T2, Dual specificity protein phosphatase 6 (Rattus norvegicus, UniProt Q64346); type: functional;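 further: confirmatory in vitro dose-response testing of MKP-3 inhibition; recombinant His-tagged MKP-3 made in E. coli BL21 with OMFP substrate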
T2 sequence (Q64346 whole entry): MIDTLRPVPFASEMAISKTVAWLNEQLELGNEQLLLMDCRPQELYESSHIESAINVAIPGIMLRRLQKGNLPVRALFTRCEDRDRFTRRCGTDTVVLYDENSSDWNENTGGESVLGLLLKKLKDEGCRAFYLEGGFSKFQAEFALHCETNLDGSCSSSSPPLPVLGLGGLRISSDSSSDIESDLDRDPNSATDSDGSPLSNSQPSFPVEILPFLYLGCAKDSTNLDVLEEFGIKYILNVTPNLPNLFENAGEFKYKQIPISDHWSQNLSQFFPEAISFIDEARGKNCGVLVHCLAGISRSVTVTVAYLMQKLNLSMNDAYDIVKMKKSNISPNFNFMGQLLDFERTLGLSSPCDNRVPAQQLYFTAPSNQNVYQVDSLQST

[4] = molecular target: T3, Tyrosine-protein phosphatase non-receptor type 22 (Homo sapiens, UniProt Q9Y2R2); assay: SAR LYP1 Fluorescent Assay using OMFP substrate for In Vitro dose response studies - Set 3. [Related pubchem assays (depositor defined):AID1779, AID1784, AID2140, AID2686]; type: functional
T3 sequence (Q9Y2R2 whole entry): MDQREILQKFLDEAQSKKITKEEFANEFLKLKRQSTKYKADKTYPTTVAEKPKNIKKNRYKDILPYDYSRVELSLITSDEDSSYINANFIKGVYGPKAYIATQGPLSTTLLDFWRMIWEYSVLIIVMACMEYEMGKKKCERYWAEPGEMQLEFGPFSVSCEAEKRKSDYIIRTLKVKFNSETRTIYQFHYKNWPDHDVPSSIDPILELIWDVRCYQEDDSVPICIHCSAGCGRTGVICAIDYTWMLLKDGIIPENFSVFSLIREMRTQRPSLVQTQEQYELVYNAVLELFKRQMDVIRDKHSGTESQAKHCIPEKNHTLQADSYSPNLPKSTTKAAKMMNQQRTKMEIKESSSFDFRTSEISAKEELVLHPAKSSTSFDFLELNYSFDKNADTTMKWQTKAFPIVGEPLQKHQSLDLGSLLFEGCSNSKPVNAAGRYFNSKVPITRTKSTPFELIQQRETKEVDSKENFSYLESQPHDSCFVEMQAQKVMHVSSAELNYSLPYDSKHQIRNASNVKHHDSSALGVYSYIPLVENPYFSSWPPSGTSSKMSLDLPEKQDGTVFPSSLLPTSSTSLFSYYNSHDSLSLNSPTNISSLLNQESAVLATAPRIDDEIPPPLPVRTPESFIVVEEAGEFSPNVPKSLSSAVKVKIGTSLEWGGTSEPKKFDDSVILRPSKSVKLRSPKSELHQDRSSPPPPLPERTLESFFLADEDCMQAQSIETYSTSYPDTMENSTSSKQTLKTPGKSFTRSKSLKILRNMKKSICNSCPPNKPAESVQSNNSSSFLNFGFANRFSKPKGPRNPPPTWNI

[5] = molecular target: Tyrosine-protein phosphatase non-receptor type 12 (Homo sapiens, UniProt Q05209); assay: SAR Selectivity Analysis of small molecule inhibitors of PEST using pCAP in a fluorescence assay. [Related pubchem assays (depositor defined):AID1779, AID1784, AID2135]; type: functional
Tyrosine-protein phosphatase non-receptor type 12, sequence (Q05209 whole entry): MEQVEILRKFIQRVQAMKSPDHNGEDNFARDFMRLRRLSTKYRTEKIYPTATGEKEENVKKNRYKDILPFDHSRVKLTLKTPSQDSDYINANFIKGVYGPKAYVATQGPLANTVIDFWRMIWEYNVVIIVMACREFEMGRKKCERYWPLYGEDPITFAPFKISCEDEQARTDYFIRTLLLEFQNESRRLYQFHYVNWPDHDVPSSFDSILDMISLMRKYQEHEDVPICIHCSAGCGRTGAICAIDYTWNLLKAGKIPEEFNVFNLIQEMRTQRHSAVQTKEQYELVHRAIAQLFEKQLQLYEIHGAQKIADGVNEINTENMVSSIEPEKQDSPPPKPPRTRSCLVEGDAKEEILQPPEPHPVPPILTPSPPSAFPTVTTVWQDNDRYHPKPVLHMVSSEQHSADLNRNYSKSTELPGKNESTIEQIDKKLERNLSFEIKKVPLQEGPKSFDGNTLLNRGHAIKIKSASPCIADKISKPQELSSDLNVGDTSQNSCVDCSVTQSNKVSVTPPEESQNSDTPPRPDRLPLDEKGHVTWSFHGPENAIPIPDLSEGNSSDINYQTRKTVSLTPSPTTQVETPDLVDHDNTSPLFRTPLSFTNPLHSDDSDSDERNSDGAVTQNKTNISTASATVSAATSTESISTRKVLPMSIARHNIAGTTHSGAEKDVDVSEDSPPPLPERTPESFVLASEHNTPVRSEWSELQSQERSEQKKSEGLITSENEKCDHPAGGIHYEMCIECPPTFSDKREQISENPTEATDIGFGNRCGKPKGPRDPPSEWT

[6] = molecular target: T3, Tyrosine-protein phosphatase non-receptor type 22; assay: inhibition of lymphoid tyrosine phosphatase LYP – biochemical, pCAP fluorogenic substrate, fluorescence, set 3, SAR follow-up (AID 449727); type: functional
[7] = molecular target: Dual specificity protein phosphatase 3 (Homo sapiens, UniProt P51452); assay: SAR VHR1 Fluorescent Assay for In Vitro dose response studies Set 2. [Related pubchem assays (depositor defined):AID1654, AID1661, AID1878]; type: functional
Dual specificity protein phosphatase 3, sequence (P51452 whole entry): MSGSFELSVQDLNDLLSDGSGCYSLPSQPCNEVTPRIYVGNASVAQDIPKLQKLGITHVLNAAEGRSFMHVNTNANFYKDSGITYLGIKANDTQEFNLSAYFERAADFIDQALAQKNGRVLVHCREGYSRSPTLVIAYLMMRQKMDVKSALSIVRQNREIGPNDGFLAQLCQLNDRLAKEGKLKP

[8] = HEK-293T viability loss, compound-treated – cell-based, uHTS hits, cytotoxicity control for B/T-cell NF-kB inhibitor project, dose response (AID 489019); type: functional;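 further: IC50 reflects cytotoxicity as loss of cell viability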
[9] = cAMP pathway inhibition in counterscreen cell line – TR-FRET cAMP detection, counter-screen for MC4R biased antagonist project, dose response (AID 602305); type: functional, cell-based;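 further: U2OS cells stimulated with forskolin near its EC80 as the cAMP inducer; potency is for inhibition of forskolin-stimulated cAMP signaling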
[10] = HPDE-C7 pancreatic duct cell viability loss – fluorescence, HTS (AID 430); type: functional, cell-based; settings: Homo sapiens
[11] = Trypanosoma cruzi growth suppression in host cells – NIH3T3 host cells, beta-gal luminescence, confirmation (AID 2044); type: functional, cell-based;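 further: intracellular parasites grown in NIH/3T3 mouse fibroblasts as host cells; luminescent beta-galactosidase reporter signal from transgenic T. cruzi replicating inside host cells; inhibitors lower the luminescence signal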
[12] = NIH3T3 cell viability loss – ATP luminescence, mouse fibroblasts, counter-screen, dose response (AID 2010); type: functional, cell-based;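 further: cells exposed to compound for about 90 hours before reading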
[13] = viability loss of HPDE-C7K cells – cell-based, fluorescence, HTS, primary screen (AID 431); type: functional; settings: Homo sapiens
Jurkat = assay: blockers of NF-kB activation in T cells – Jurkat, luciferase reporter, luminescence, B- and T-cell, dose response (AID 489004); type: functional, cell-based; settings: Homo sapiens;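 further: NF-kB luciferase reporter Jurkat cells stimulated with PMA plus ionomycin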
Melanocortin receptor 4 = Melanocortin receptor 4 (Homo sapiens, UniProt P32245); assay: inhibitors of MC4R cAMP signaling – cell-based, TR-FRET, biased antagonists, dose response (AID 602298); type: functional;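 further: antagonist potency against agonist-stimulated cAMP production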
Melanocortin receptor 4, sequence (P32245 whole entry): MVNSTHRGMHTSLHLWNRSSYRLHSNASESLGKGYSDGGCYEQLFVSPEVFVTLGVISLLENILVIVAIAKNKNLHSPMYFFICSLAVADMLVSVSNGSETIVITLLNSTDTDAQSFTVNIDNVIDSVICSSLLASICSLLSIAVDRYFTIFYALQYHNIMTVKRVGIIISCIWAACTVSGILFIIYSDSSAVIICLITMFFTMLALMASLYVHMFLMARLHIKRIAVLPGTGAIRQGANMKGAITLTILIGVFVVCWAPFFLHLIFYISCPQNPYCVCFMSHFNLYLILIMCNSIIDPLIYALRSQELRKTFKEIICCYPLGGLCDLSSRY

[14] = viability of PTEN-deleted HCT116 cells – cell-based, HCT116 PTEN knockout, dose response (AID 1047); type: functional;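 further: HCT116 colon tumor cells with PTEN knocked out; cells exposed to compound for 60 hours before readout; potency for loss of cell viability measured by luminescence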
[15] = viability of HCT116 lacking mutant beta-catenin – cell-based, human colon tumor, dose response (AID 1045); type: functional;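 further: HCT116 colon tumor cells with beta catenin knocked out; cells exposed to compound for 60 hours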
CAAX prenyl protease 2 = molecular target: T4, CAAX prenyl protease 2 (Homo sapiens, UniProt Q9Y256); assay: inhibition of Ras-converting CAAX protease Rce1 – biochemical, yeast membranes, quenched-peptide fluorescence, cherry-pick, dose response (AID 588849)
T4 sequence (Q9Y256 whole entry): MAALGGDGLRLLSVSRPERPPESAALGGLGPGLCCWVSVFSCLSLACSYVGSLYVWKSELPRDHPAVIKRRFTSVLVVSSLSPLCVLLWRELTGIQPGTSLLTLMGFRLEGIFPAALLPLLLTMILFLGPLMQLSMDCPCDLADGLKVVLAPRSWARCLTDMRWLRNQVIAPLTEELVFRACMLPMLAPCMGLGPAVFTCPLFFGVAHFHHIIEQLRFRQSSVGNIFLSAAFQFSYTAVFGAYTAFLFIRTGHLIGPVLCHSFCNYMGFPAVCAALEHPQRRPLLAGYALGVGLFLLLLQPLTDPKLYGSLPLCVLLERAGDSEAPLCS

CAAX prenyl protease 1 = CAAX prenyl protease 1 (Saccharomyces cerevisiae S288c, UniProt P47154); assay: yeast CAAX protease Ste24 inhibition – biochemical, S. cerevisiae, plate reader, cherry-pick, dose response (AID 488815)
CAAX prenyl protease 1, sequence (P47154 whole entry): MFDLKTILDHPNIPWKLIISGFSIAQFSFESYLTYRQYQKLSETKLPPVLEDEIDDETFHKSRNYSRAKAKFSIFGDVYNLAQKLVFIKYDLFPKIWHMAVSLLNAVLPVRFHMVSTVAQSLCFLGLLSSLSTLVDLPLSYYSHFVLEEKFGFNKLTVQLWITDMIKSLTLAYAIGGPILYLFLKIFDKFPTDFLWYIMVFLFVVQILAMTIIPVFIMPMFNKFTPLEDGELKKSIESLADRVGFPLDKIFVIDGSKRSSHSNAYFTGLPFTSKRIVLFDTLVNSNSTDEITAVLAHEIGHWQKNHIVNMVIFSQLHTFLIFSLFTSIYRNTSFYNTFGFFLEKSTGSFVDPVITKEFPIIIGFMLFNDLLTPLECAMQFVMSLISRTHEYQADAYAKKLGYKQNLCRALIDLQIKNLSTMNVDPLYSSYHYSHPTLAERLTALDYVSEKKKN

Trypsin = Trypsin (Sus scrofa, UniProt P00761); assay: trypsin protease activity blockade – biochemical, quenched peptide fluorescence, cherry-pick, selectivity assay for Rce1 protease inhibitor project, dose response (AID 488789)
Trypsin, sequence (P00761 whole entry): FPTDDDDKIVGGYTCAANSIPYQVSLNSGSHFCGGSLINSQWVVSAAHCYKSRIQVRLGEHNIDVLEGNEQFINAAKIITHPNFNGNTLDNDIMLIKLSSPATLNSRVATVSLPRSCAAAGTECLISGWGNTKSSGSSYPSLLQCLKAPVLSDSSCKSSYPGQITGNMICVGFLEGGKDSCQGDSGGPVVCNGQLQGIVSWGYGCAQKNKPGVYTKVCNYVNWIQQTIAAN

[16] = fluconazole-exposed Candida albicans growth modulators – fluorescence, retest, confirmation (AID 2467); type: functional, cell-based
[17] = NIH-3T3 fibroblast cytotoxicity, dose response, cytotoxicity control, cell-based, fluorescence, Alamar Blue, secondary assay (AID 2327); type: functional;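 further: NIH-3T3 mouse fibroblasts cultured with fluconazole at 8 µg/mL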
Protein RecA = molecular target: T5, Protein RecA (Mycobacterium tuberculosis, UniProt P9WHJ3); assay: Fluorescence Cell-Free Homogeneous Dose Retest to Identify Inhibitors of RecA-Intein Splicing Activity. [Related pubchem assays (depositor defined):AID2097, AID2223, AID489010, AID492950]; type: functional
T5 sequence (P9WHJ3 whole entry): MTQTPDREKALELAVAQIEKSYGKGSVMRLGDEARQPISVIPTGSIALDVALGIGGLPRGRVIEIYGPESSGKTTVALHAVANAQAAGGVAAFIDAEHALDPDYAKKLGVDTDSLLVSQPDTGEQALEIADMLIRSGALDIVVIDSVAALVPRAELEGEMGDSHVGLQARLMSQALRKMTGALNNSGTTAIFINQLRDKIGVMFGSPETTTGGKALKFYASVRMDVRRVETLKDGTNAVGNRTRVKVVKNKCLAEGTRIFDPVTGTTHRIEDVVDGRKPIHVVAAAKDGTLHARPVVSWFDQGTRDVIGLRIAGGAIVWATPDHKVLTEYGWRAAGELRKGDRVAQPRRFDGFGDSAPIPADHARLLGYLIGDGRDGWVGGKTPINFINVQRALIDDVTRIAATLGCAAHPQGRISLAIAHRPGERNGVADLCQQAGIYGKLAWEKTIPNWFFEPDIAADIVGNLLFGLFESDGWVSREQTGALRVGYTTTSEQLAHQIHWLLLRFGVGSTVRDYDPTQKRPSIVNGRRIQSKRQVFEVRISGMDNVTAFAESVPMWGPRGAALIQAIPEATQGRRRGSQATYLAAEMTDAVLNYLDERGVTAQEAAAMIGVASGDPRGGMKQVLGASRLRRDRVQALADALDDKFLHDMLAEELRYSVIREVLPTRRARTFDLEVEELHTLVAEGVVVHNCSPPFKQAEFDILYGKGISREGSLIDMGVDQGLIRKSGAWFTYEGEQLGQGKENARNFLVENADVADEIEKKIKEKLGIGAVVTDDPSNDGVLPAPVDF

[18] = Luminescence Cell-Based Dose Retest to Confirm Inhibitors of Cancer Stem Cells. [Related pubchem assays (depositor defined):AID2717, AID2721]; type: functional; settings: Homo sapiens
[19] = molecular target: T6, Ubiquitin-conjugating enzyme E2 N (Homo sapiens, UniProt P61088); type: functional;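 further: Dose-response confirmation in a TR-FRET assay detecting UBC13-driven polyubiquitin chain formation, inhibition measured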
T6 sequence (P61088 whole entry): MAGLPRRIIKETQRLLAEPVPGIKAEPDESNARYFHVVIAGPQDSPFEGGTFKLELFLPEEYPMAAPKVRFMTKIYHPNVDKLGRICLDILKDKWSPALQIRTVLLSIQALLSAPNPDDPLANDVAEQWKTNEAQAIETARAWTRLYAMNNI

[20] = molecular target: T7, Replicative DNA helicase DnaB (Mycobacterium tuberculosis, UniProt P9WMR3); assay: DnaB intein splicing inhibitors, dose response, biochemical, cell-free fluorescence (AID 449749); type: functional
T7 sequence (P9WMR3 whole entry): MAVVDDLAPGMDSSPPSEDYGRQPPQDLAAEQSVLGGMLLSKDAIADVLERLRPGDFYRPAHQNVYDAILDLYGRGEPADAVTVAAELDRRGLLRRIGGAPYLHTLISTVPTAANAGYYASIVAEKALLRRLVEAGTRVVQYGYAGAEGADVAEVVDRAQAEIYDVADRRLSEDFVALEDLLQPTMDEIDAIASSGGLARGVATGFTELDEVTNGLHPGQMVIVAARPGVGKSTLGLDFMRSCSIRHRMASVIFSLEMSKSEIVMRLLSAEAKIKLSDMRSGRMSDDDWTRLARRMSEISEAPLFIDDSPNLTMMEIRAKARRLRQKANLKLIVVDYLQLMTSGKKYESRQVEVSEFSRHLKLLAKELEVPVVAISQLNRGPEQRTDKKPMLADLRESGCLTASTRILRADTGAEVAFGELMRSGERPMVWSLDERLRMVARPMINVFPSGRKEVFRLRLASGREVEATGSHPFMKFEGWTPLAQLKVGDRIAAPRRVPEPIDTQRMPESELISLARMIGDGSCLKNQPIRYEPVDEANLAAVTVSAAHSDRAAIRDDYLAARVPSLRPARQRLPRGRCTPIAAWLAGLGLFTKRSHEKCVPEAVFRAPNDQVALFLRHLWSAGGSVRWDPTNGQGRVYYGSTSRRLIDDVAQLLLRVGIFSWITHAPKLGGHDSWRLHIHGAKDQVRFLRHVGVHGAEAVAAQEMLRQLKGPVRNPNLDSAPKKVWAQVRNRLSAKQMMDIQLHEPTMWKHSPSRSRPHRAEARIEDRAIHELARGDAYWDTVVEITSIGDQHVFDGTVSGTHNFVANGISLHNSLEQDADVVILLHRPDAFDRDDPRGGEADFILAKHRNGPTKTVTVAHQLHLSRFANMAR

SMILES: CCOc1cc(/C=C2/S/C(=N\c3ccccc3)NC2=O)cc(I)c1OCC(=O)O
- IC50 [1]: 2.33 µM (active)
- IC50 [2]: 6.03 µM (active)
- IC50 [3]: > 100 µM (inactive)
- IC50 [4]: 56.6 µM (active)
- IC50 [5]: 7.6 µM (active)
- IC50 [6]: 30.2 µM (active)
- IC50 [7]: 33.8 µM (active)

SMILES: N=c1c2c(-c3ccccc3)c(-c3ccccc3)n(Cc3ccccc3)c2ncn1CCCn1ccnc1
- IC50 [8]: 43.2 µM (inactive)
- IC50 [9]: > 64.6 µM (inactive)
- EC50 [10]: 5.47 µM (active)
- EC50 [11]: 2.44 µM (active)
- EC50 [12]: 7.16 µM (active)
- EC50 [13]: 17 µM (active)
- IC50 (Jurkat): 8.3 µM (active)
- IC50 (Melanocortin receptor 4): > 64.6 µM (inactive)
- EC50 [14]: 0.85 µM (active)
- EC50 [15]: 0.613 µM (active)

SMILES: CCc1ccc(NC(=O)c2cnc(N3CCN(c4ccccn4)CC3)c3ccccc23)cc1
- AC50 (CAAX prenyl protease 2): 29.7 µM (active)
- EC50 [11]: 3.14 µM (active)
- AC50 (CAAX prenyl protease 1): 9.95 µM (active)
- EC50 [12]: > 30 µM (not active)
- AC50 (Trypsin): 87.7 µM (active)

SMILES: CN(C)c1ccc(-c2n(C)c3ccccc3[n+]2C)cc1
- IC50 [8]: > 80 µM (inactive)
- EC50 [11]: 0.582 µM (active)
- EC50 [16]: 2.18 µM (active)
- EC50 [12]: 18.1 µM (active)
- IC50 (Jurkat): > 80 µM (inactive)
- EC50 [17]: > 150 µM (inactive)

SMILES: CCN(Cc1ccccc1)S(=O)(=O)c1ccc(C(=O)N(CCCN(C)C)c2nc3cc(C)cc(C)c3s2)cc1
- EC50 (Protein RecA): 17.7 µM (active)
- AC50 [18]: 4.44 µM (active)
- AC50 (CAAX prenyl protease 1): 17 µM (active)
- IC50 [19]: > 20 µM (inactive)
- AC50 [20]: 7.04 µM (active)
